Assay results published in article PMC3006138, “Fexinidazole – A New Oral Nitroimidazole Drug Candidate Entering Clinical Development for the Treatment of Sleeping Sickness” (PLoS Neglected Tropical Diseases, 2010).
Where two headings read alike, the source gives them in different places.

How the values were obtained:
[1] = Rat 28-day toxicokinetics; assay type: in vivo; conditions: plasma, po; for half-life: read-out: apparent terminal half-life (converted); for AUC: read-out: AUC within 24 hours post dosing
Experimental: In the rat repeated-dose toxicokinetic study, fexinidazole was administered orally by gavage once a day for 28 consecutive days to ten or fifteen Crl:CD (SD)IGS BR rats/sex/group at doses of 50, 200, or 800 mg/kg/day. A control group received the vehicle alone (5% Tween 80/0.5% methocel). Ten animals/sex/group were sacrificed at the end of the treatment period on day 29 or 30 of study. The remaining 5 animals/sex/group in the control and high-dose groups were sacrificed on day 43 at the end of a 2-weeks observation period. Systemic exposure to fexinidazole and its sulfoxide and sulfone metabolites was evaluated in three additional animals/sex/group. Samples were taken at predose, and 30 min, 1, 2, 4, 8 and 24 h after dosing on days 1, 14, and 28, and in addition at 48 and 72 h after treatment on day 28.
Toxicokinetic Report for the study No. 0504-2007
SD Standard deviation of the mean […]
t1/2,z Terminal half-life tmax Time to peak plasma concentration
ULOQ Upper limit of quantification
The study was conducted according to the study protocol and related amendment.
Fexinidazole was orally given by gavage once a day for 28 days to male and female Sprague Dawley rats according to the following scheme
Fexinidazole was suspended with 5% Tween 80 in 0.5% Methyl cellulose 400 cP.
6.2. Sample Collection and Handling
Blood samples (about 0.25 mL/sampling time) were withdrawn from retro-orbital sinus plexus under isofluorane anesthesia and put in heparinized plastic tubes kept on a ice-water bath, then centrifuged for 10 min at 1200g at +4°C and two aliquots of about 50 μL of plasma were stored in a freezer at -80°C until analysis. Blood was taken from three rats/gender/dose on Days 1 and 14 at pre-dose and 0.5, 1, 2, 4, 8 and 24 hours after dosing, on Day 28 at pre-dose and 1, 2, 4, 8, 24, 48 and 72 hours after dosing. After the administration of the vehicle, the samples were taken from three rats/gender at pre-dose and […]
6.3. Bioanalytical Method
Rat plasma concentrations of Fexinidazole and its sulfoxide (M1) and sulfone (M2) metabolites were determined by a validated LC/MS/MS method. The calibration range for the assay was 5-1000 ng/mL for Fexinidazole and 25-25000 ng/mL for M1 and M2.
Study samples containing analytes concentrations above the upper limit of quantitation were diluted with blank matrix prior to analysis.
6.4. Pharmacokinetic Calculations
Pharmacokinetic evaluation was carried out using non-compartmental approach with the aid […]
Excel spreadsheet (Microsoft Inc., Seattle, USA). […]
In the calculations, the undetectable concentrations between detectable ones were ignored.
After each dose level, Cmax and tmax of Fexinidazole and sulfoxide and sulfone metabolites […]
linear trapezoidal rule up to the last detectable concentration. On Day 28, since the blood […]
24 hours post dosing was calculated and denoted AUC0-24. This AUC was calculated in order to compare AUC values on Day 28 to those on Day 1 and Day 14. On Day 28, in addition, the half-life of the terminal phase, t1/2,z, was determined by linear regression analysis of the natural-log concentration vs. time curve, where t1/2,z = ln(2)/slope of the regression line.
Fexinidazole and metabolites accumulation ratios, based on Cmax (RA,Cmax), AUC0-24 (RA,AUC0-24) and AUC0-t(last) (RA,AUC0-t(last)), were calculated as the ratio between the parameters obtained on Day 14 and Day 28 to the corresponding one at Day 1. […]
pharmacokinetic parameters of each compound sorted by dose, gender and day of dosing. […]
compound are reported in Tables 1 and 2, whilst individual and mean parameters of each […]
Individual and mean (±SD, CV%) plasma
2A1 - 19A1 of Appendix 1. Individual plasma concentrations of Fexinidazole and both metabolites are plot in Figures 1 - 9, whilst the mean concentrations are plot in Figures 10 - 15. Mean normalized Cmax and AUC0-t(last) values of Fexinidazole and metabolites vs. dose are plot in Figures 16 - 21.
In-study bioanalytical validation data are reported in Appendix 2. All analytical batches met […]

[2] = One-electron reduction potential by pulse radiolysis; assay type: physicochemical
Experimental: One-electron reduction potentials were determined by pulse radiolysis following an established procedure.

[3] = Sprague-Dawley (Crl:CD (SD)IGS BR), 50 mg/kg/day, 50 mg/kg/day po, day 1
[4] = Sprague-Dawley (Crl:CD (SD)IGS BR), 50 mg/kg/day, 50 mg/kg/day po, day 14
[5] = Sprague-Dawley (Crl:CD (SD)IGS BR), 200 mg/kg/day, 200 mg/kg/day po, day 1
[6] = both sexes, Sprague-Dawley (Crl:CD (SD)IGS BR), 200 mg/kg/day, 200 mg/kg/day po, day 14
[7] = both sexes, Sprague-Dawley (Crl:CD (SD)IGS BR), 800 mg/kg/day, 800 mg/kg/day po, day 1
[8] = both sexes, Sprague-Dawley (Crl:CD (SD)IGS BR), 800 mg/kg/day, 800 mg/kg/day po, day 14

Compound Cn1c([N+](=O)[O-])cnc1COc1ccc(S(C)(=O)=O)cc1 [Fexinidazole sulfone] has a half-life ([1]; Sprague Dawley (Crl:CD (SD)IGS BR), 50 mg/kg/day, Day 28, female) of 13 h, a half-life ([1]; Sprague Dawley (Crl:CD (SD)IGS BR), 50 mg/kg/day, Day 28, male) of 6.1 ± 1.2 h and a half-life ([1]; Sprague Dawley (Crl:CD (SD)IGS BR), 200 mg/kg/day, Day 28, female) of 7.3 h. The half-life ([1]; Sprague Dawley (Crl:CD (SD)IGS BR), 200 mg/kg/day, Day 28, male) was 7.5 h, the half-life ([1]; Sprague Dawley (Crl:CD (SD)IGS BR), 800 mg/kg/day, Day 28, female (n=2)) was 11 h and the half-life ([1]; Sprague Dawley (Crl:CD (SD)IGS BR), 800 mg/kg/day, Day 28, male) was 10 h. The Cmax [1, 3] was 2.92 ± 2.26 µg/mL, the Tmax [1, 3] was 7.33 ± 1.63 h and the AUC(0-t) ([1]; Sprague-Dawley (Crl:CD (SD)IGS BR), 50 mg/kg/day, 50 mg/kg/day po, day 1, read-out: AUC0-t(last)) was 36.1 ± 28.6 µg·h/mL. For the same compound, the Cmax [1, 4] was 6.38 ± 2.3 µg/mL, the Tmax [1, 4] was 6 ± 2.19 h and the AUC(0-t) ([1]; Sprague-Dawley (Crl:CD (SD)IGS BR), 50 mg/kg/day, 50 mg/kg/day po, day 14, read-out: AUC0-t(last)) was 89.6 ± 34.1 µg·h/mL. For the same compound, the AUC ([1]; Sprague-Dawley (Crl:CD (SD)IGS BR), 50 mg/kg/day, Day 28, female) was 175 µg·h/mL, the AUC ([1]; Sprague-Dawley (Crl:CD (SD)IGS BR), 50 mg/kg/day, Day 28, male) was 106 µg·h/mL and the Cmax [1, 5] was 9.29 ± 1.75 µg/mL. The Tmax [1, 5] was 8 h, the AUC ([1]; Sprague-Dawley (Crl:CD (SD)IGS BR), 200 mg/kg/day, Day 28, female) was 341 µg·h/mL and the AUC ([1]; Sprague-Dawley (Crl:CD (SD)IGS BR), 200 mg/kg/day, Day 28, male) was 341 µg·h/mL. It also gave an AUC ([1]; Sprague-Dawley (Crl:CD (SD)IGS BR), 800 mg/kg/day, Day 28, female (n=2)) of 572 µg·h/mL, an AUC ([1]; Sprague-Dawley (Crl:CD (SD)IGS BR), 800 mg/kg/day, Day 28, male) of 459 µg·h/mL and an AUC(0-t) ([1]; both sexes, Sprague-Dawley (Crl:CD (SD)IGS BR), 200 mg/kg/day, 200 mg/kg/day po, day 1, read-out: AUC0-t(last)) of 126 ± 17.5 µg·h/mL. The Cmax [1, 6] was 20.2 ± 2.42 µg/mL, the Tmax [1, 6] was 7.33 ± 1.63 h and the AUC(0-t) ([1]; both sexes, Sprague-Dawley (Crl:CD (SD)IGS BR), 200 mg/kg/day, 200 mg/kg/day po, day 14, read-out: AUC0-t(last)) was 287 ± 36.5 µg·h/mL. For the same compound, the Cmax [1, 7] was 42.6 ± 13.1 µg/mL, the Tmax [1, 7] was 10.7 ± 6.53 h and the AUC(0-t) ([1]; both sexes, Sprague-Dawley (Crl:CD (SD)IGS BR), 800 mg/kg/day, 800 mg/kg/day po, day 1, read-out: AUC0-t(last)) was 574 ± 256 µg·h/mL. It also gave a Cmax [1, 8] of 40.5 ± 13 µg/mL, a Tmax [1, 8] of 6.67 ± 2.07 h and an AUC(0-t) ([1]; both sexes, Sprague-Dawley (Crl:CD (SD)IGS BR), 800 mg/kg/day, 800 mg/kg/day po, day 14, read-out: AUC0-t(last)) of 543 ± 252 µg·h/mL. It also gave a Cmax ([1]; female, Sprague Dawley (Crl:CD (SD)IGS BR), 50 mg/kg, Day 1, female) of 4.42 ± 2.41 µg/mL, an AUC(0-t) ([1]; female, Sprague Dawley (Crl:CD (SD)IGS BR), 50 mg/kg, Day 1, female, read-out: AUC0-t(last)) of 55.8 ± 28.1 µg·h/mL and a Cmax ([1]; female, Sprague Dawley (Crl:CD (SD)IGS BR), 50 mg/kg/day, Day 28, female) of 10.7 µg/mL. For the same compound, the Cmax ([1]; female, Sprague Dawley (Crl:CD (SD)IGS BR), 200 mg/kg, Day 1, female) was 10 ± 0.815 µg/mL, the AUC(0-t) ([1]; female, Sprague Dawley (Crl:CD (SD)IGS BR), 200 mg/kg, Day 1, female, read-out: AUC0-t(last)) was 134 ± 10.8 µg·h/mL and the Cmax ([1]; female, Sprague Dawley (Crl:CD (SD)IGS BR), 200 mg/kg/day, Day 28, female) was 21.4 µg/mL. For the same compound, the Cmax ([1]; female, Sprague Dawley (Crl:CD (SD)IGS BR), 800 mg/kg, Day 1, female) was 44.8 ± 20.1 µg/mL, the AUC(0-t) ([1]; female, Sprague Dawley (Crl:CD (SD)IGS BR), 800 mg/kg, Day 1, female, read-out: AUC0-t(last)) was 683 ± 241 µg·h/mL and the Cmax ([1]; female, Sprague Dawley (Crl:CD (SD)IGS BR), 800 mg/kg/day, Day 28, female (n=2)) was 41.9 µg/mL. It also gave an AUC(0-t) ([1]; female, Sprague-Dawley (Crl:CD (SD)IGS BR), 50 mg/kg/day, Day 28, female, read-out: AUC0-t(last)) of 197 µg·h/mL, an AUC(0-t) ([1]; female, Sprague-Dawley (Crl:CD (SD)IGS BR), 200 mg/kg/day, Day 28, female, read-out: AUC0-t(last)) of 448 µg·h/mL and an AUC(0-t) ([1]; female, Sprague-Dawley (Crl:CD (SD)IGS BR), 800 mg/kg/day, Day 28, female (n=2), read-out: AUC0-t(last)) of 738 µg·h/mL. It also gave a Cmax ([1]; male, Sprague Dawley (Crl:CD (SD)IGS BR), 50 mg/kg, Day 1, male) of 1.42 ± 0.393 µg/mL, an AUC(0-t) ([1]; male, Sprague Dawley (Crl:CD (SD)IGS BR), 50 mg/kg, Day 1, male, read-out: AUC0-t(last)) of 16.5 ± 9.76 µg·h/mL and a Cmax ([1]; male, Sprague Dawley (Crl:CD (SD)IGS BR), 50 mg/kg/day, Day 28, male) of 7.75 µg/mL. It also gave a Cmax ([1]; male, Sprague Dawley (Crl:CD (SD)IGS BR), 200 mg/kg, Day 1, male) of 8.55 ± 2.31 µg/mL, an AUC(0-t) ([1]; male, Sprague Dawley (Crl:CD (SD)IGS BR), 200 mg/kg, Day 1, male, read-out: AUC0-t(last)) of 119 ± 21.9 µg·h/mL and a Cmax ([1]; male, Sprague Dawley (Crl:CD (SD)IGS BR), 200 mg/kg/day, Day 28, male) of 24.2 µg/mL. For the same compound, the Cmax ([1]; male, Sprague Dawley (Crl:CD (SD)IGS BR), 800 mg/kg, Day 1, male) was 40.3 ± 1.56 µg/mL, the AUC(0-t) ([1]; male, Sprague Dawley (Crl:CD (SD)IGS BR), 800 mg/kg, Day 1, male, read-out: AUC0-t(last)) was 465 ± 264 µg·h/mL and the Cmax ([1]; male, Sprague Dawley (Crl:CD (SD)IGS BR), 800 mg/kg/day, Day 28, male) was 33 µg/mL. For the same compound, the AUC(0-t) ([1]; male, Sprague-Dawley (Crl:CD (SD)IGS BR), 50 mg/kg/day, Day 28, male, read-out: AUC0-t(last)) was 113 µg·h/mL, the AUC(0-t) ([1]; male, Sprague-Dawley (Crl:CD (SD)IGS BR), 200 mg/kg/day, Day 28, male, read-out: AUC0-t(last)) was 387 µg·h/mL and the AUC(0-t) ([1]; male, Sprague-Dawley (Crl:CD (SD)IGS BR), 800 mg/kg/day, Day 28, male, read-out: AUC0-t(last)) was 509 µg·h/mL. For the same compound, the “single electron redox potential” value [2] was −488 mV.
